{"source": "patent US8263757B2", "about": "“Promiscuous HER-2/Neu CD4 T cell epitopes” (Dendreon Corporation, priority 2006, dated 2012)", "system": "T cell clone HER500.23c21", "experiment": "HLA-DR promiscuity: HERp270-284 presented by EBV-LcL lines homozygous for HLA-DRB1* alleles to HER500.23c21 (IFNγ ELISA)", "assay_type": "cell-based, human", "experimental": "FIG. 4. HERp270-284 is a promiscuous MHC Class II HER-2/Neu epitope. (A) EBV-LcL lines homozygous for various HLA-DR alleles were tested for their ability to present HERp270-284 to clone HER500.23c21. Antigen-specific IFNγ production by HER500.23c21 was above the upper detection limit of the IFNγ ELISA (4000 pg/mL) with all EBV-LcL lines. […] The assay was set up in 96 well round bottom plates in cRPMI+10% FBS with 2×10^5 EBV-LcL/well and 1×10^5 HER500.23c21 cells/well. Peptides were used at a final concentration of 1 μg/mL. The assay was incubated for 48 hours at 37° C. with 5% CO2. Supernatants were harvested, frozen at −20° C. and then analyzed for IFNγ by ELISA. Results are shown for one representative experiment. (B) HERp270-284 was titrated with each EBV LcL line to determine the sensitivity of HER500.23c21 to different alleles. The assay was set up as in (A) except HERp270-284 concentrations are: 10 ng/mL, 33 ng/mL, 66 ng/mL, 100 ng/mL and 250 ng/mL. […] Results are shown for one representative experiment.\nCytokine Production. To determine cytokine production in the antigen specific stimulation assays, after 48 hours, 200 μL of supernatant was pulled from cultures and tested for both IL-2 and IFNγ production. IL-2 production was measured using the IL-2 dependent line HT-2 (ATCC). HT-2 cells were grown in IMDM with 10% FBS and 100 uM NEAA, 1 mM Sodium Pyruvate, 2 mM L-glutamine, […], 50 U/mL Streptomycin, 20 mM HEPES and 20 uM 2-Mercaptoethanol (cIMDM+10% FBS) and fed twice a week with 20 ng/mL rIL-2. For the assay, 4 days after HT-2 cells were split, cells were washed with IMDM+10% FBS to remove all rIL-2, and cells were added to 96 well round bottom plates at 1×10^4 cells/well in cIMDM+10% FBS. Supernatants from antigen specific stimulation were added to wells and plates were incubated 24-30 hours at 37° C. The following day 1 μCi of ^3[H] TdR was added for the final 6 hours of the assay and plates were harvested to glass fiber filter mats and DNA incorporation of the radioisotope, or proliferative response, was determined by counts per minute using a liquid scintillation counter (PerkinElmer Life and Analytical Sciences, Inc. Boston, Mass.). IFNγ production was measured using anti-human IFNγ antibody pairs for ELISA (BD Pharmingen, San Diego, Calif.). Briefly, Immulon 4 plates (Thermo Labsystems/VWR, Brisbane, Calif.) were coated overnight with purified anti-human IFNγ antibody (NIB42) at 3 μg/mL. The next day coating antibody was discarded and 4% Bovine Serum Albumin (BSA) (Sigma, St. Louis, Mo.) in PBS (Invitrogen) was added to wells and plates were incubated for 2 hours at 37° C. Plates were washed with PBS+0.05% Tween 20 and 100 μL of supernatant samples from the antigen specific stimulation was added to wells and incubated at room temperature for 1.25-2 hours. Plates were washed and biotinylated anti-human IFNγ antibody (4S.B3) was diluted in 1% BSA in PBS (1 μg/mL) and added to plates for 1 hour at room temperature. After washing plates, Strep-Avidin HRP (BD Pharmingen) was diluted 1:1000 in PBST and added to wells for 30 minutes at room temperature. Finally, plates were washed and Sigma® Fast OPD was added for 15 minutes in the dark. 2M HCl was added to stop the reaction and plates were read for absorbance at 492 nm on a spectrophotometer.\nHLA-DR Restriction and Promiscuity. To determine HLA-DR restriction of the T cell epitope HERp270-284, anti-HLA-DR mAb L243, HLA-DQ mAb 1a3 or HLA-DP mAb B7/21 (20-1.25 μg/mL) were cultured with T cell clone HER.23c21, peptide HERp270-284 and autologous EBV-LcL in cRPMI+10% FBS media. Supernatants were harvested after 48 hours and tested for IL-2 and IFNγ production. HERp270-284 was also tested for HLA-DR promiscuity using EBV-LcL lines purchased from the European Collection of Cell Cultures originating from the 12th International Histocompatibility Workshop (IHW) held in Strasbourg, France. […]", "data": [{"sequence": "ALVTYNTDTFESMPN (HER-2/Neu peptide 270-284, HER500 peptide #63, HERp270-284, HER-2/Neu epitope 270-284, residues 3-17 of SEQ ID NO1) [Peptide 63]", "values": [{"measurement": "T cell response induced, regardless of the EBV-LCL line used", "setting": "1 ug/ml peptide", "result": "maximal T cell response"}, {"measurement": "IFNγ production by HER500.23c21 (ELISA), peptide titration", "setting": "all HERp270-284 concentrations above 250 ng/mL, each EBV LcL line", "result": "> 4000", "unit": "pg/mL"}, {"measurement": "lowest peptide concentration able to stimulate Her500.23c21", "setting": "allele DRB1*0401", "result": 10, "unit": "ng/mL"}, {"measurement": "peptide concentration below which allele was unable to stimulate Her500.23c21", "setting": "allele DRB1*1103", "result": "≥ 250", "unit": "ng/mL"}, {"measurement": "number of HLA-DRB1* alleles for which the epitope is promiscuous (presented to HER500.23c21)", "setting": "panel of 25 EBV LcL lines homozygous for different HLA-DRB1* alleles, 13 DR serological families", "result": "at least 25"}, {"measurement": "Antigen-specific IFNγ production by HER500.23c21 (ELISA)", "setting": "peptide 1 μg/mL, all EBV-LcL lines, 48 hours, upper detection limit 4000 pg/mL", "result": "> 4000", "unit": "pg/mL"}]}]}
